According to patent US11802111B2, “Cyclobutyl amide monoacylglycerol lipase modulators” (Janssen Pharmaceutica NV, priority 2020, dated 2023):

Target: human MGL from HeLa cells (Homo sapiens (Human), UniProt Q99685)
Assay: MGL in vitro activity assay ([glycerol-1,3-3H]-oleoyl glycerol hydrolysis, activated carbon filtration)
Type: biochemical
Details: 300 nM [Glycerol-1,3-3H]-oleoyl glycerol, one hour
In short: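 Endogenous human MGL in HeLa cells/homogenates incubated 1 h with test compounds and 300 nM [glycerol-1,3-3H]-oleoyl glycerol. Released 3H-glycerol passing an activated carbon filter counted as activity; screening at 10 μM compound, top IC50 concentration set empirically.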

Chain of human MGL from HeLa cells (Q99685 whole entry): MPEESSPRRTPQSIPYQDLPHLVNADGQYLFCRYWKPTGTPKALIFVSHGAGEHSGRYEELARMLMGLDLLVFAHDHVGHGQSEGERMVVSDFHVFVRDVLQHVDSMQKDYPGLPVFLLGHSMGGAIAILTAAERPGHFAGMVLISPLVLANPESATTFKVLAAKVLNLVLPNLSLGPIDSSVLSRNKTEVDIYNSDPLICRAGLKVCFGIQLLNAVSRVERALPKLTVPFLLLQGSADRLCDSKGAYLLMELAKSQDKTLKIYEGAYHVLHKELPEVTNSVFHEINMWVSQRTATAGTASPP

Compound: COc1ccc(CC2CCC3(C2)CN(C(=O)[C@H]2C[C@@](C)(O)C2)C3)cc1 (mixture of isomers) [Example 205, (rac)-((1s,3s)-3-Hydroxy-3-methylcyclobutyl)(6-(4-methoxybenzyl)-2-azaspiro[3.4]octan-2-yl)methanone]
- IC50: 76 nM

Compound: C[C@]1(O)C[C@@H](C(=O)N2CC3(CCC(Cc4ccccc4)C3)C2)C1 (mixture of isomers) [Example 234, (rac)-(6-Benzyl-2-azaspiro[3.4]octan-2-yl)((1s,3s)-3-hydroxy-3-methylcyclobutyl)methanone]
- IC50: 98 nM

Compound: CC(C)(C)c1ccc(OC2CCC3(C2)CN(C(=O)[C@H]2C[C@@](C)(O)C2)C3)cc1 (mixture of isomers) [Example 240, (rac)-(6-(4-(tert-Butyl)phenoxy)-2-azaspiro[3.4]octan-2-yl)((1s,3s)-3-hydroxy-3-methylcyclobutyl)methanone]
- IC50: 122 nM

Compound: CC(C)(C)c1cccc(OC2CCC3(C2)CN(C(=O)[C@H]2C[C@@](C)(O)C2)C3)c1 (mixture of isomers) [Example 243, (rac)-(6-(3-(tert-Butyl)phenoxy)-2-azaspiro[3.4]octan-2-yl)((1s,3s)-3-hydroxy-3-methylcyclobutyl)methanone]
- IC50: 26 nM

Compound: Cc1c(OC2CCC3(C2)CN(C(=O)[C@H]2C[C@@](C)(O)C2)C3)cccc1C(F)(F)F (mixture of isomers) [Example 253, (rac)-((1s,3s)-3-Hydroxy-3-methylcyclobutyl)(6-(2-methyl-3-(trifluoromethyl)phenoxy)-2-azaspiro[3.4]octan-2-yl)methanone]
- IC50: 26 nM

Compound: Cc1cc(OC2CCC3(C2)CN(C(=O)[C@H]2C[C@@](C)(O)C2)C3)ccc1C(F)(F)F (mixture of isomers) [Example 254, (rac)-((1s,3s)-3-Hydroxy-3-methylcyclobutyl)(6-(3-methyl-4-(trifluoromethyl)phenoxy)-2-azaspiro[3.4]octan-2-yl)methanone]
- IC50: 21 nM

Compound: Cc1cc(C(F)(F)F)ccc1OC1CCC2(C1)CN(C(=O)[C@H]1C[C@@](C)(O)C1)C2 (mixture of isomers) [Example 255, (rac)-((1s,3s)-3-Hydroxy-3-methylcyclobutyl)(6-(2-methyl-4-(trifluoromethyl)phenoxy)-2-azaspiro[3.4]octan-2-yl)methanone]
- IC50: 15 nM

Compound: Cc1ccc(OC2CCC3(C2)CN(C(=O)[C@H]2C[C@@](C)(O)C2)C3)cc1C(F)(F)F (mixture of isomers) [Example 256, (rac)-((1s,3s)-3-Hydroxy-3-methylcyclobutyl)(6-(4-methyl-3-(trifluoromethyl)phenoxy)-2-azaspiro[3.4]octan-2-yl)methanone]
- IC50: 74 nM

Compound: CC(c1cccc2ccnn12)C1CC2(C1)CN(C(=O)[C@H]1C[C@@](C)(O)C1)C2 (mixture of isomers) [Example 316, (rac)-((1s,3s)-3-Hydroxy-3-methylcyclobutyl)(6-(1-(pyrazolo[1,5-a]pyridin-7-yl)ethyl)-2-azaspiro[3.3]heptan-2-yl)methanone]
- IC50: 49 nM

Compound: CC(C)c1cccc(C2CCC3(C2)CN(C(=O)[C@H]2C[C@](O)(C(F)F)C2)C3)c1 (mixture of isomers) [Example 319, (rac)-((1s,3s)-3-(Difluoromethyl)-3-hydroxycyclobutyl)(6-(3-isopropylphenyl)-2-azaspiro[3.4]octan-2-yl)methanone]
- IC50: 38 nM

Compound: CC(F)(F)c1ccc(C2CCC3(C2)CN(C(=O)[C@H]2C[C@@](C)(O)C2)C3)cc1 (mixture of isomers) [Example 320, (rac)-(6-(4-(1,1-Difluoroethyl)phenyl)-2-azaspiro[3.4]octan-2-yl)((1s,3s)-3-hydroxy-3-methylcyclobutyl)methanone]
- IC50: 18 nM

Compound: C[C@]1(O)C[C@@H](C(=O)N2CC3(CCC(c4ccc5c(c4)OCC5)C3)C2)C1 (mixture of isomers) [Example 323, (rac)-(6-(2,3-Dihydrobenzofuran-6-yl)-2-azaspiro[3.4]octan-2-yl)((1s,3s)-3-hydroxy-3-methylcyclobutyl)methanone]
- IC50: 166 nM

Compound: C[C@]1(O)C[C@@H](C(=O)N2CC3(CCC(c4cccn5nccc45)C3)C2)C1 (mixture of isomers) [Example 324, (rac)-((1s,3s)-3-Hydroxy-3-methylcyclobutyl)(6-(pyrazolo[1,5-c]pyridin-4-yl)-2-azaspiro[3.4]octan-2-yl)methanone]
- IC50: 835 nM

Compound: C[C@]1(O)C[C@@H](C(=O)N2CC3(CCC(c4cc5ccccn5n4)C3)C2)C1 (mixture of isomers) [Example 325, (rac)-((1s,3s)-3-Hydroxy-3-methylcyclobutyl)(6-(pyrazolo[1,5-c]pyridin-2-yl)-2-azaspiro[3.4]octan-2-yl)methanone]
- IC50: 348 nM

Compound: Cn1ncc2c(C3CCC4(C3)CN(C(=O)[C@H]3C[C@@](C)(O)C3)C4)cccc21 (mixture of isomers) [Example 326, (rac)-((1s,3s)-3-Hydroxy-3-methylcyclobutyl)(6-(1-methyl-1H-indazol-4-yl)-2-azaspiro[3.4]octan-2-yl)methanone]
- IC50: 185 nM

Compound: C[C@]1(O)C[C@@H](C(=O)N2CC3(CCC(c4cccn5ccnc45)C3)C2)C1 (mixture of isomers) [Example 327, (rac)-((1s,3s)-3-Hydroxy-3-methylcyclobutyl)(6-(imidazo[1,2-c]pyridin-8-yl)-2-azaspiro[3.4]octan-2-yl)methanone]
- IC50: 3090 nM

Compound: C[C@]1(O)C[C@@H](C(=O)N2CC3(CCC(c4ccn5ccnc5c4)C3)C2)C1 (mixture of isomers) [Example 328, (rac)-((1s,3s)-3-Hydroxy-3-methylcyclobutyl)(6-(imidazo[1,2-a]pyridin-7-yl)-2-azaspiro[3.4]octan-2-yl)methanone]
- IC50: 3710 nM

Compound: C[C@]1(O)C[C@@H](C(=O)N2CC3(CCC(c4ncn5ccccc45)C3)C2)C1 (mixture of isomers) [Example 329, (rac)-((1s,3s)-3-Hydroxy-3-methylcyclobutyl)(6-(imidazo[1,5-a]pyridin-1-yl)-2-azaspiro[3.4]octan-2-yl)methanone]
- IC50: 683 nM

Compound: C[C@]1(O)C[C@@H](C(=O)N2CC3(CCC(c4ncn5c4CCCC5)C3)C2)C1 (mixture of isomers) [Example 330, (rac)-((1s,3s)-3-Hydroxy-3-methylcyclobutyl)(6-(5,6,7,8-tetrahydroimidazo[1,5-a]pyridin-1-yl)-2-azaspiro[3.4]octan-2-yl)methanone]
- IC50: 2380 nM

Compound: C[C@]1(O)C[C@@H](C(=O)N2CC3(CCC(c4cc5n(n4)CCCC5)C3)C2)C1 (mixture of isomers) [Example 331, (rac)-((1s,3s)-3-Hydroxy-3-methylcyclobutyl)(6-(4,5,6,7-tetrahydropyrazolo[1,5-a]pyridin-2-yl)-2-azaspiro[3.4]octan-2-yl)methanone]
- IC50: 1020 nM

Compound: Cc1ccc(OC2CCC3(C2)CN(C(=O)[C@H]2C[C@@](C)(O)C2)C3)cc1C1CC1 (mixture of isomers) [Example 332, (rac)-(6-(3-Cyclopropyl-4-methylphenoxy)-2-azaspiro[3.4]octan-2-yl)((1s,3s)-3-hydroxy-3-methylcyclobutyl)methanone]
- IC50: 136 nM

Compound: Cc1c(OC2CCC3(C2)CN(C(=O)[C@H]2C[C@@](C)(O)C2)C3)cccc1C1CC1 (mixture of isomers) [Example 333, (rac)-(6-(3-Cyclopropyl-2-methylphenoxy)-2-azaspiro[3.4]octan-2-yl)((1s,3s)-3-hydroxy-3-methylcyclobutyl)methanone]
- IC50: 37 nM

Compound: C[C@]1(O)C[C@@H](C(=O)N2CC3(CCC(Oc4cccc(C5CC5)c4F)C3)C2)C1 (mixture of isomers) [Example 334, (rac)-(6-(3-Cyclopropyl-2-fluorophenoxy)-2-azaspiro[3.4]octan-2-yl)((1s,3s)-3-hydroxy-3-methylcyclobutyl)methanone]
- IC50: 125 nM

Compound: C[C@]1(O)C[C@@H](C(=O)N2CC3(CCC(Oc4ccc(F)c(C5CC5)c4)C3)C2)C1 (mixture of isomers) [Example 335, (rac)-(6-(3-Cyclopropyl-4-fluorophenoxy)-2-azaspiro[3.4]octan-2-yl)((1s,3s)-3-hydroxy-3-methylcyclobutyl)methanone]
- IC50: 116 nM

Compound: Cc1ccc(OC2CCC3(C2)CN(C(=O)[C@H]2C[C@@](C)(O)C2)C3)nc1C(F)(F)F (mixture of isomers) [Example 336, (rac)-((1s,3s)-3-Hydroxy-3-methylcyclobutyl)(6-((5-methyl-6-(trifluoromethyl)pyridin-2-yl)oxy)-2-azaspiro[3.4]octan-2-yl)methanone]
- IC50: 91 nM

Compound: CC(C)c1cccc([C@@H]2CCC3(C2)CN(C(=O)[C@H]2C[C@@](C)(O)C2)C3C)c1 (relative stereo) [Example 318, ((1s,3*S)-3-Hydroxy-3-methylcyclobutyl)((6*R)-6-(3-isopropylphenyl)-1-methyl-2-azaspiro[3.4]octan-2-yl)methanone]
- IC50: 48 nM

Compound: C[C@@H](c1ccccc1)[C@H]1CCC2(C1)CN(C(=O)[C@H]1C[C@@](C)(O)C1)C2 (relative stereo) [Example 338, ((1s,3*R)-3-Hydroxy-3-methylcyclobutyl)((*S)-6-((*R)-1-phenylethyl)-2-azaspiro[3.4]octan-2-yl)methanone]
- IC50: 60 nM

Compound: C[C@H](c1ccccc1)[C@H]1CCC2(C1)CN(C(=O)[C@H]1C[C@@](C)(O)C1)C2 (relative stereo) [Example 339, ((1s,3*R)-3-Hydroxy-3-methylcyclobutyl)((*S)-6-((*S)-1-phenylethyl)-2-azaspiro[3.4]octan-2-yl)methanone]
- IC50: 48 nM

Compound: C[C@@H](c1ccccc1)[C@@H]1CCC2(C1)CN(C(=O)[C@H]1C[C@@](C)(O)C1)C2 (single isomer, unassigned) [Example 337, ((1s,3*S)-3-Hydroxy-3-methylcyclobutyl)((*R)-6-((*R)-1-phenylethyl)-2-azaspiro[3.4]octan-2-yl)methanone]
- IC50: 149 nM

Compound: COc1cc([C@@H]2CCC3(C2)CN(C(=O)[C@H]2C[C@@](C)(O)C2)C3)ccc1C (stereo in doubt) [Example 18, ((1s,3*S)-3-Hydroxy-3-methylcyclobutyl)((*R)-6-(3-methoxy-4-methylphenyl)-2-azaspiro[3.4]octan-2-yl)methanone]
- IC50: 64 nM

Compound: COc1cc([C@H]2CCC3(C2)CN(C(=O)[C@H]2C[C@@](C)(O)C2)C3)ccc1C (stereo in doubt) [Example 19, ((1s,3*R)-3-Hydroxy-3-methylcyclobutyl)((*S)-6-(3-methoxy-4-methylphenyl)-2-azaspiro[3.4]octan-2-yl)methanone]
- IC50: 67 nM
